Laboratory results from patent US6835736B1, “Discorhabdin compounds and methods of use” (Harbor Branch Oceanographic Institution, Inc., priority 2003, dated 2004).

Columns and labels:
Assay type in all cases: cell-based
NCI/ADR cells = assay: Antiproliferative MTT assay, NCI/ADR cells; conditions: Homo sapiens, NCI/ADR-RES
Procedure: (§1) Extracts and compounds were analyzed as to their effects on proliferation of A549 human adenocarcinoma, PANC-1 human pancreatic and P388 murine leukemia cell lines. P388 and NCI/ADR cells were obtained from Dr. R. Camalier, National Cancer Institute, Bethesda, Md., and A549 and PANC-1 cells were obtained from American Type Culture Collection, Rockville, Md. All cell lines were maintained in Roswell Park Memorial Institute (RPMI) medium 1640 supplemented with 10% fetal bovine sernm. All cell lines are cultured in plastic tissue culture flasks and kept in an incubator at 37° C. in humidified air containing 5% CO2. Prior to testing, antibiotic-free stock cultures of each of the cell lines were subcultured to […] by dilution in fresh growth medium at 2 to 3 day intervals.
(§2) To quantitate the effects of pure compounds on cell proliferation and resulting IC50 values, 75 μl of warm growth media containing 5 mg/ml MTT is added to each well, cultures returned to the incubator, and left undisturbed for 90 minutes. To spectrophotometrically quantitate formation of reduced formazan, plates are centrifuged (900×g, 5 minutes), culture fluids removed by aspiration, and 200 μl of acidified isopropanol (2 ml concentrated HCl/liter isopropanol) added per well. The absorbance of the resulting solutions is measured at 570 nm with a plate reader (TECAN Spectra II Plate Reader, TECAN U.S., Research Triangle Park, NC). […]

[1] = test system: PANC-1 human pancreatic cell line; assay: Antiproliferative MTT assay, PANC-1 cells; conditions: additional 48 hour exposure
Procedure: as §1
(§3) To assess the antiproliferative effects of extracts and compounds against the P388 cell line, 200 μl cultures (96-well tissue culture plates, Nunc, Denmark) are established at 1×10^5 cells/ml in drug-free medium or medium containing the test agent at 10.0, 1.0, 0.10 and 0.010 μg/ml. Solvent for all dilutions ethanol. All experimental cultures are initiated in medium containing gentamycin su fate (50 μg/ml; Schering Corporation, Kenilworth, N.J.). After 48-h exposures, P388 cells are enumerated using 3-[4,5-dimethylthiazol-2-yl]-2,5-diphenyltetrazolium bromide (MTT) as described below (M. C. Alley et al., 1988, Cancer Res. 48:589.
(§4) Similar procedures are utilized for A549 and PANC-1 cells which require an additional 48 hour exposure prior to MTT addition. Results are expressed as percent inhibition compared to the negative (no drug) control. Positive drug controls are included to monitor drug sensitivity of each of the cell lines. These include varying dilutions of 5-fluorouracil and adriamycin.
(§5) To quantitate the effects of pure compounds on cell proliferation and resulting IC50 values, 75 μl of warm growth media containing 5 mg/ml MTT is added to each well, cultures returned to the incubator, and left undisturbed for 90 minutes. […]

[2] = test system: A549 human adenocarcinoma cell line; assay: Antiproliferative MTT assay, A549 cells; conditions: additional 48 hour exposure
Procedure: as §1, §3, §4, §5

[3] = test system: P388 murine leukemia cell line; assay: Antiproliferative MTT assay, P388 cells; conditions: Mus musculus, 48-h exposure, read-out: Activity (IC50) P-388
Procedure: as §1, §3, §2

`CSC1=CC(=O)C(Br)=CC12C=CNC1=C2C2=NCCc3cn(C)c(c32)C1=O` (stereo not drawn) [Discorhabdin U] was tested, and the IC50 (NCI/ADR cells) was 0.22 µg/mL, the IC50 [1] was 0.069 µg/mL and the IC50 [2] was 0.34 µg/mL. The IC50 [3] was 0.17 µg/mL.

For `CSC1=CC(=O)C(Br)=CC12C=CNC1=C2c2nccc3cn(C)c(c23)C1=O` (stereo not drawn) [Discorhabdin T], the IC50 (NCI/ADR cells) was over 5 µg/mL, the IC50 [1] was 0.7 µg/mL and the IC50 [2] was over 5 µg/mL. For the same compound, the IC50 [3] was over 5 µg/mL.

For `CSC1=CC(=O)C(Br)=CC12CCNC1=C2c2nccc3cn(C)c(c23)C1=O` (stereo not drawn) [Discorhabdin S], the IC50 (NCI/ADR cells) was over 5 µg/mL, the IC50 [1] was 2.6 µg/mL and the IC50 [2] was over 5 µg/mL. The IC50 [3] was 3.08 µg/mL.
